# Data: patent US6255092A, “Stereospecific alcohol dehydrogenase isolated from Candida parapsilosis, amino acid and DNA sequences therefor, and method of preparation thereof” (Daicel Chemical Industries Ltd., priority 1993, dated 2001)
# Read-outs that look alike come from different tables or passages of the source.
# B1: secondary alcohol dehydrogenase: NAD+-dependent stereospecific secondary alcohol dehydrogenase purified from Candida parapsilosis IFO 1396, SEQ. ID NO: 2 (protein)
# chain: MSIPSSQYGFVFNKQSGLNLRNDLPVHKPKAGQLLLKVDAVGLCHSDLHVIYEGLDCGDNYVMGHEIAGTVAAVGDDVINYKVGDRVACVGPNGCGGCKYCRGAIDNVCKNAFGDWFGLGYDGGYQQYLLVTRPRNLSRIPDNVSADVAAASTDAVLTPYHAIKMAQVSPTSNILLIGAGGLGGNAIQVAKAFGAKVTVLDKKKEARDQAKKLGADAVYETLPESISPGSFSACFDFVSVQATFDVCQKYVEPKGVIMPVGLGAPNLSFNLGDLALREIRILGSFWGTTNDLDDVLKLVSEGKVKPVVRSAKLKELPEYIEKLRNNAYEGRVVFNP
# B2: SADH-1: primary alcohol dehydrogenase derived from baker's yeast (Saccharomyces cerevisiae) (protein, UniProt P00330 2-348, looked up)
# Alcohol dehydrogenase 1: SIPETQKGVIFYESHGKLEYKDIPVPKPKANELLINVKYSGVCHTDLHAWHGDWPLPVKLPLVGGHEGAGVVVGMGENVKGWKIGDYAGIKWLNGSCMACEYCELGNESNCPHADLSGYTHDGSFQQYATADAVQAAHIPQGTDLAQVAPILCAGITVYKALKSANLMAGHWVAISGAAGGLGSLAVQYAKAMGYRVLGIDGGEGKEELFRSIGGEVFIDFTKEKDIVGAVLKATDGGAHGVINVSVSEAAIEASTRYVRANGTTVLVGMPAGAKCCSDVFNQVVKSISIVGSYVGNRADTREALDFFARGLVKSPIKVVGLSTLPEIYEKMEKGQIVGRYVVDTSK
# Tests used:
# [1] = target: T1, secondary alcohol dehydrogenase (Lodderomyces parapsilosis, UniProt O42703)
# Description: (§1) One unit of enzyme was defined as the amount of enzyme necessary to catalyze the formation of 1 μmol of NADH per min under the assay conditions.
# [2] = target: T1, secondary alcohol dehydrogenase; assay: biochemical; type: biochemical, Candida parapsilosis; parameters: full length 336 aa, about 40 kDa; gene also expressed in E. coli JM109 (pKK-CPA1); details: for remaining activity at 1000 µM: read-out: Relative activity (remaining activity)
# Description: After said enzyme was incubated at 30° C. for 30 min in the presence of various reagents, the remaining activity was assayed and expressed as the percentage relative to that (100%) of the untreated enzyme (Table 5).
# [3] = target: T1, secondary alcohol dehydrogenase; assay: Substrate specificity: reducing activity with ketones/aldehydes (NADH); type: biochemical, Candida parapsilosis; parameters: full length 336 aa, about 40 kDa; gene also expressed in E. coli JM109 (pKK-CPA1); details: reduction, coenzyme NADH, relative to 2-butanone reducing activity (100%)
# [4] = pH optimum of (S)-2-butanol oxidizing activity; type: biochemical, Candida parapsilosis; details: KPB, Tris-HCl and Briton-Robinson buffer
# Description: as §1
# [5] = pH optimum of 2-butanone reducing activity; type: biochemical, Candida parapsilosis; details: NADH, KPB, Tris-HCl and Briton-Robinson buffer
# [6] = Optimum reaction temperature, standard assay; type: biochemical, Candida parapsilosis
# Description: The secondary alcohol dehydrogenase activity was assayed under the standard assay conditions at different temperature as shown in Table 2.
# [7] = Thermostability of the purified enzyme; type: physicochemical, Candida parapsilosis; details: 40° C. for 10 min, pH 8.0, relative to the original activity
# Description: After the purified enzyme was incubated at pH 8.0 and 30° C.-70° C. for 10 min, the remaining activity was assayed. Even after the incubation at 40° C. for 10 min, more than 90% of the original enzyme activity was retained (FIG. 5).
# [8] = Specific activity of the purified enzyme, standard assay; type: biochemical, Candida parapsilosis; details: purified enzyme after Mono-Q, (S)-2-butanol, pH 9.0, 30° C.
# Description: The wet cells thus obtained were disrupted in a high pressure cell disintegrator, and centrifuged to remove cell debris. To the cell-free extract protamine sulfate was added to remove nucleic acids and microsomes. After centrifugation, the supernatant was brought to 70% saturation with ammonium sulfate, and the precipitate was collected, subjected to anion exchange chromatography on Q-Sepharose FF, eluted with a density gradient of NaCl, and the peak fraction containing said secondary alcohol dehydrogenase activity was collected. The active fraction was then subjected to hydrophobic chromatography on a column of phenyl-Sepharose equilibrated with a buffer containing 1.62 M ammonium sulfate, and the active fraction was eluted by reducing the ammonium sulfate concentration to 0 M (the enzyme activity was assayed as described hereinbefore). After the active fraction was added to a Red Sepharose affinity column, the unretained fraction was subjected to a Superdex 200 gel filtration. The recovered active fraction was subjected to anion exchange chromatography on a Mono Q column and eluted with a density gradient of NaCl. Only active fractions which gave a single band in the purity test on SDS-PAGE were collected.
# [9] = relative to that for ethanol; cited from earlier work
# [10] = oxidation, substrate 5 mM, coenzyme NAD+, relative to (S)-2-butanol oxidizing activity (100%)
# [11] = inhibitor 1 mM, 30° C. for 30 min, relative to untreated enzyme (100%)
molecule,measurement,setting,value
CCCCCCC(C)O (racemic) [(RS)-2-Octanol],Relative activity,[1]; [10],39.2%
O[C@H](CS)[C@H](O)CS (racemic) [Dithiothreitol],Inhibition of the enzyme activity (in words),[2],markedly inhibited
same,remaining activity at 1000 µM,[2]; [11],0%
CCC(C)=O [2-Butanone],Relative activity,[3]; substrate 100 mM,100.0%
CC(=O)C(C)(C)O [3-Hydroxy-3-methyl-2-butanone],Relative activity,[3]; substrate 100 mM,18.5%
CC(=O)CCO [4-Hydroxy-2-butanone],Relative activity,[3]; substrate 100 mM,41.2%
CC(C)CC(C)O (stereo not shown) [4-Methyl-2-pentanol],Relative activity,"[1]; oxidation, substrate 20 mM, coenzyme NAD+, relative to (S)-2-butanol oxidizing activity (100%)",40.8%
C[C@@H](O)c1ccccc1 [(R)-1-Phenylethanol],Relative activity,[1],1.1
CCCCCC[C@@H](C)O [(R)-2-Octanol],Relative activity,[1]; [10],0.0%
C[C@H](O)c1ccccc1 [(S)-1-Phenylethanol],Relative activity,[1],89.3
CCCCCC[C@H](C)O [(S)-2-Octanol],Relative activity,[1]; [10],67.7%
CC(C)=O [Acetone],Relative activity,[3]; substrate 100 mM,123.4%
CC(=O)c1ccccc1 [Acetophenone],Relative activity,[3]; substrate 20 mM,121.8%
O=S(=O)([O-])[O-].[Cu+2] [CuSO4],Relative activity (remaining activity),[2]; [11],25.5%
OC1CCCCC1 [Cyclohexanol],Relative activity,[1],52.8
"O=C(O)CN(CCN(CC(=O)O)CC(=O)O)CC(=O)O [Ethylenediaminetetraacetic acid, Ethylenediamine-tetraacetic acid]",Inhibition of the enzyme activity (in words),[2],not
same,remaining activity at 1000 µM,[2],102%
"[Cl][Hg][Cl] [HgCl2, mercuric chloride]",Inhibition of the enzyme activity (in words),[2],markedly inhibited
same,Relative activity (remaining activity),[2]; [11],0.0%
CO [Methanol],Relative activity,[1],0.2
CCN1C(=O)C=CC1=O [N-Ethylmaleimide],Inhibition of the enzyme activity (in words),[2],inhibited
same,remaining activity at 1000 µM,[2]; [11],21.2%
NO [NH2 OH],Relative activity (remaining activity),"[2]; inhibitor 0.01 mM, 30° C. for 30 min, relative to untreated enzyme (100%)",92.7%
[N-]=[N+]=[N-].[Na+] [NaN3],Relative activity (remaining activity),"[2]; inhibitor 0.02(%), 30° C. for 30 min, relative to untreated enzyme (100%)",89.9%
"O=S(=O)(F)Cc1ccccc1 [Phenylmethanesulfonyl fluoride, Phenylmethane-sulfonyl fluoride]",Relative activity (remaining activity),[2]; [11],69.0%
CCC=O [Propionaldehyde],Relative activity,[3]; substrate 100 mM,76.2%
"[Cl-].[Cl-].[Zn+2] [ZnCl2, zinc chloride]",Inhibition of the enzyme activity (in words),[2],markedly inhibited
same,Relative activity (remaining activity),[2]; [11],16.4%
"OCCS [b-Mercaptoethanol, 2-mercaptoethanol]",Inhibition of the enzyme activity (in words),[2],markedly inhibited
same,remaining activity at 1000 µM,[2]; [11],3.2%
NC(=O)CI [iodoacetamide],Inhibition of the enzyme activity (in words),[2],markedly inhibited
c1cnc2c(c1)ccc1cccnc12 [o-Phenanthroline],Inhibition of the enzyme activity (in words),[2],inhibited
same,remaining activity at 1000 µM,[2]; [11],19%
"O=C(O)c1cc[c]([Hg][Cl])cc1 [p-Chloromercuribenzoic acid, p-Chloromercuri-benzoic acid]",Inhibition of the enzyme activity (in words),[2],markedly inhibited
same,Relative activity (remaining activity),"[2]; inhibitor 0.05 mM, 30° C. for 30 min, relative to untreated enzyme (100%)",0.0%
same,Inhibition of the enzyme activity (in words),[2]; listed as p-mercuribenzoic acid,inhibited
B1,pH optimum for the oxidation of (S)-2-butanol,[4],8.5-9.5
same,pH optimum for the reduction of 2-butanone,[5],5.5-6.5
same,Temperature range of high activity,[6],25-55 °C
same,Relative activity,[6]; 30 °C,55%
same,Relative activity,[6]; 37 °C,65%
same,Relative activity,[6]; 45 °C,92%
same,Relative activity,[6]; 50 °C,100%
same,Relative activity,[6]; 55 °C,88%
same,Relative activity,[6]; 60 °C,0%
same,Optimum reaction temperature,[6]; standard assay conditions,50 °C
same,Remaining activity after heat treatment,[7],more than 90%
same,Specific activity,[8],1370 units/mg
B2,Relative activity for 2-butanol,[9],about 1%
